From patent US11013716B2, “Method for providing an increased expression of telomerase, brain-derived neurotrophic factor, stromal cell-derived factor-1, CXC chemokine receptor 4, and/or immune regulatory factor of stem cell” (HAWKING BIOLOGICAL TECHNOLOGY CO., LTD, priority 2013, dated 2021)

Assays:
interleukin 6 (IL-6) = experiment: Gene expression level in ADSCs by RT-PCR: IL-6; assay type: cell-based, human; conditions: ADSCs, 10, 20 or 50 μg/ml, 12 hours; FIG. 5
Protocol: (§1) Human ADSCs were isolated from human adipose tissue by the following steps. Human adipose tissue from clinical research was washed with equal volumes of phosphate-buffered saline (PBS) and minced with fine scissors. Then, the tissue was digested with 0.075% collagenase type I (Sigma-Aldrich Co., St. Louis, Mo., USA) at 37° C. for 30 to 60 minutes, and a Dulbecco's modified Eagle's medium (DMEM)/F-12 (Invitrogen, Carlsbad, Calif., USA) containing 10% fetal bovine serum (FBS, Invitrogen) was added to terminate the digestion. The digested adipose tissue cells were filtered through a 100 μm nylon mesh to remove the cellular debris. The cell suspension was centrifuged for 10 minutes to obtain a pellet and cultured at 37° C., 5% CO2 in a culture media (DMEM/F-12 containing 10% FBS, 100 U/mL penicillin, and 100 μg/mL streptomycin). Following the incubation, the plates were washed with PBS to remove the residual non-adherent red blood cells. […]
(§2) ADSCs (2×10^5 cells/well) were cultured in a 6 well dish in a 37° C. incubator overnight. […] Thereafter, the gene expression levels of brain-derived neurotrophic factor (BDNF), stromal cell-derived factor-1 (SDF1), C-X-C chemokine receptor type 4 (CXCR4), interleukin 6 (IL-6), and interleukin 8 (IL-8) of the ADSCs were determined by RT-PCR. […]

[1] = system: stromal cell-derived factor-1 (SDF1); experiment: Gene expression level in ADSCs by RT-PCR: SDF1; assay type: cell-based, human; conditions: ADSCs, 10, 20 or 50 μg/ml (especially 20 μg/ml), 12 hours; FIG. 5
Protocol: as §1, §2

telomerase [2] = experiment: Telomerase expression level of ADSCs (Telomerase PCR ELISA kit); assay type: cell-based, human; conditions: 100 μM or 250 μM, 24 hours; FIG. 4
Protocol: as §1
The ADSCs were cultured in a 10 cm dish, and treated with valproic acid (VPA) (1 μM or 10 μM) or BP (comprising Z-BP 95%+E-BP 5%; purchased from ECHO Chemical) (100 μM or 250 μM) at different doses for 24 hours. Then, the telomerase expression level of the ADSCs was determined by a Telomerase PCR ELISA kit (Cat. No. 11854666910, Roche). […]

[3] = system: SOD1-G93A transgenic mice; experiment: BBB scale of the hind limbs of SOD1-G93A transgenic mice; assay type: in vivo; conditions: 500 mg/kg once daily oral; FIG. 3
Protocol: (§3) This example used the above SOD1-G93A transgenic mice as the object of study to perform in vivo analysis.
After the mice were treated for 30 days, the hind limbs of the mice were examined by BBB scale (Basso, Beattie, and Bresnahan (BBB) Locomotor Rating Scale). […] BBB scale is used to record the efficiency of the treatments.

interleukin 8 (IL-8) = experiment: Gene expression level in ADSCs by RT-PCR: IL-8; assay type: cell-based, human; conditions: ADSCs, 10, 20 or 50 μg/ml, 12 hours; FIG. 5
Protocol: as §1, §2

[4] = system: SOD1-G93A transgenic mice; experiment: Survival of SOD1-G93A transgenic mice (amyotrophic lateral sclerosis model); assay type: in vivo; conditions: oral
Text: It has been known that about 20% of amyotrophic lateral sclerosis patients were associated with mutations in the gene that encodes Cu/Zn superoxide dismutase enzyme (SOD1), and G93A was the major mutation site.
as §3

[5] = system: brain-derived neurotrophic factor (BDNF); experiment: Gene expression level in ADSCs by RT-PCR: BDNF; assay type: cell-based, human; conditions: ADSCs, 10, 20 or 50 μg/ml (especially 20 μg/ml), 12 hours; FIG. 5
Protocol: as §1, §2

[6] = system: C-X-C chemokine receptor type 4 (CXCR4); experiment: Gene expression level in ADSCs by RT-PCR: CXCR4; assay type: cell-based, human; conditions: ADSCs, 10, 20 or 50 μg/ml (especially 20 μg/ml), 12 hours; FIG. 5
Protocol: as §1, §2

[7] = Phase I metabolism assay of n-butylidenephthalide, human hepatic microsomes, LC-MS/MS; assay type: in vitro ADME; conditions: Human hepatic microsomes 0.5 mg/mL, BP 2 mM, NADPH, 37° C., 60 minutes
Text: (§4) It has been known that the medicine metabolic pathway within an organism's liver can be primarily divided into phase I and phase II metabolism. Phase I metabolism occurs mainly by the redox reaction or hydrolysis reaction of medicine, while phase II metabolism occurs mainly by […]. This example simulated the phase I and II metabolism of butylidenephthalide that occur within an organism's liver by respectively mixing butylidenephthalide with hepatic microsomes or cryopreserved hepatocytes in vitro. The products in the reaction solution were analyzed by liquid chromatograph-tandem mass spectrometer (LC-MS/MS) to identify the metabolites and the metabolic profile. The experimental steps were as follows:
(§5) n-Butylidenephthalide (comprising Z-BP 95%+E-BP 5%; purchased from ECHO Chemical) (2 mM) was mixed respectively with K3PO4 buffer solution (100 mM, pH7.4) containing human, rats or dogs hepatic micrsomes (0.5 mg/mL). The mixture was maintained at 37° C. for 10 minutes, and then pre-warmed cofactors (NADPH (2 mM) and MgCl2 (3 mM)) were added thereto and the mixture was incubated at 37° C. for 60 minutes. Thereafter, 3-fold volume of acetonitrile containing 0.1% formic acid was added to the mixture to terminate the reaction. The mixture was centrifuged at 13000 rpm for 5 minutes. The supernatant was then collected and analyzed by LC-MS/MS to identify the metabolites.
(§6) The samples obtained from (1) and (2) were separately dissolved in acetonitrile/0.1% formic acid, centrifuged at 45000 g, 4° C. for 10 minutes. Then, an aliquot (20 μl) of each sample was injected into an autosampler vial (Agilent Technologies, USA) of a LC-MS/MS system to perform LC-MS/MS analysis. The LC-MS/MS system comprises an ABSCIEX 5500 Q TRAP™ system with 1200SL HPLC system (Agilent Technologies, USA), a HPLC column (Symmetry® C18, 3.5 μM, 4.6×75 mm), and a autosampler (Agilent Technologies, USA). A two-solvent system (solvent A: 0.1% formic acid; solvent B: methanol containing 0.1% formic acid) was used to perform HPLC at a flow rate of 0.8 mL/min. The HPLC gradient system was set as follows: 0 to 2 minutes held at 10% solvent B; 2 to 7 minutes with a gradient from 10% to 95% solvent B; 7 to 12 minutes held at 95% solvent B; 12 to 14 minutes with a gradient from 95% to 10% solvent B; 14 to 20 minutes held at 10% solvent B; and the retention time of HPLC analysis is 20 minutes. The mass spectrometry analysis was performed in positive ion electrospray ionization (+ESI) mode at 5.5 kV, 550° C., and N2 (nitrogen) was used as an auxiliary gas. The most intense peaks in the LC-MS/MS spectrum and the mass-shifted peaks in the LC-MS/MS spectrum of each sample as compared to n-butylidenephthalide spectrum were analyzed by LightSight™ Software to determine the metabolites in the samples and identifying the biotransformation pathway and metabolic profile of n-butylidenephthalide in an organism. The results are shown in Table 1, Table 2, FIG. 1A, FIG. 1B and FIG. 1C.

[8] = Phase I metabolism assay of n-butylidenephthalide, rat hepatic microsomes, LC-MS/MS; assay type: in vitro ADME; conditions: Rat hepatic microsomes 0.5 mg/mL, BP 2 mM, NADPH, 37° C., 60 minutes
Text: as §4, §5, §6

[9] = Phase I metabolism assay of n-butylidenephthalide, dog hepatic microsomes, LC-MS/MS; assay type: in vitro ADME; conditions: Dog hepatic microsomes 0.5 mg/mL, BP 2 mM, NADPH, 37° C., 60 minutes
Text: as §4, §5, §6

human hepatocytes = experiment: Phase II metabolism assay of n-butylidenephthalide, human hepatocytes, LC-MS/MS; assay type: in vitro ADME; conditions: Human cryopreserved hepatocytes, BP 50 μM, 37° C., 6 hours
Text: as §4
(§7) William's E medium containing 5×10^5 thawed human, rat or dog hepatocytes were respectively added into a 12-well culture dish, and the cells were cultured for 6 hours. Then, 0.5 mL of n-butylidenephthalide (comprising Z-BP 95%+E-BP 5%; purchased from ECHO Chemical) (50 μM) was added into the culture dish. After the cells were incubated at 37° C., 95% relative humidity and 5% CO2 for 6 hours, 2 mL of acetonitrile (100%) was added to terminate the reaction. […] The supernatant was then collected, dried, and analyzed by LC-MS/MS to identify the metabolites of n-butylidenephthalide. […]

rat hepatocytes = experiment: Phase II metabolism assay of n-butylidenephthalide, rat hepatocytes, LC-MS/MS; assay type: in vitro ADME; conditions: Rat cryopreserved hepatocytes, BP 50 μM, 37° C., 6 hours
Text: as §4, §7

dog hepatocytes = experiment: Phase II metabolism assay of n-butylidenephthalide, dog hepatocytes, LC-MS/MS; assay type: in vitro ADME; conditions: Dog cryopreserved hepatocytes, BP 50 μM, 37° C., 6 hours
Text: as §4, §7

telomerase [10] = conditions: previous research; cited from earlier work
[11] = 500 mg/kg-body weight once daily

Biotransformation pathway (Phase I metabolites of n-butylidenephthalide) [7]	Biotransformation pathway (Phase I metabolites of n-butylidenephthalide) [8]	Biotransformation pathway (Phase I metabolites of n-butylidenephthalide) [9]	Compound	other results
			CCCC=C1OC(=O)c2ccccc21 [BP, n-butylidenephthalide]	Gene expression level of IL-6 (interleukin 6 (IL-6)): increased; Gene expression level of SDF1 [1]: increased; Telomerase activity (expression level of telomerase) of ADSCs (telomerase [2]): higher telomerase activity; Time after which the BBB scale of the hind limbs decreased rapidly [3]: > 135 days; Gene expression level of IL-8 (interleukin 8 (IL-8)): increased; Longevity prolonged as compared to the control group ([4]; 250 mg/kg-body weight twice daily): about 91.3±16 days; Longevity prolonged as compared to the control group [4, 11]: about 22.7±2.8 days; Gene expression level of BDNF [5]: increased; Gene expression level of CXCR4 [6]: increased
Dehydrogenation	Dehydrogenation	Dehydrogenation	C/C=C/C=C1\OC(=O)c2ccccc21 [Compound (2)]	
Oxidation	Oxidation	Oxidation	CC(O)C/C=C1\OC(=O)c2ccccc21 (stereo not drawn) [Compound (4)]	
Hydrogenation (forming	Hydrogenation (forming	Hydrogenation (forming	CCCCC(=O)c1ccccc1C(=O)O [Compound (5)]	
Hydrogenation (forming	Hydrogenation (forming	Hydrogenation (forming	CCCCC1(O)OC(=O)c2ccccc21 (stereo not drawn) [Compound (7)]	
Tri-Demethylation	Tri-Demethylation	Tri-Demethylation	C=C1OC(=O)c2ccccc21 [Compound (8)]	
			C/C=C/C=C1\OC(=O)c2c1cccc2S(=O)(=O)O [Compound (12)]	Biotransformation pathway (Phase II metabolites of n-butylidenephthalide) (human hepatocytes): Dehydrogenation +; Biotransformation pathway (Phase II metabolites of n-butylidenephthalide) (rat hepatocytes): Dehydrogenation +
			C/C=C/C=C1\OC(=O)c2c(O[C@@H]3OC(CO)[C@@H](O)[C@H](O)C3O)cccc21 (stereo partly drawn) [Compound (14)]	Biotransformation pathway (Phase II metabolites of n-butylidenephthalide) (dog hepatocytes): Dehydrogenation +
			CCCC(CCC)C(=O)O [VPA, valproic acid]	Telomerase activity of ADSCs (telomerase [10]): could increase the telomerase activity
			CCCC=C1OC(=O)C2=C1CCC=C2 [ligustilide, 3-butylidene-4,5-dihydrophthalide]	Time after which the BBB scale of the hind limbs decreased rapidly [3]: > 170 days; Longevity prolonged as compared to the control group [4, 11]: about 74.8±1.2 days
